{
  "source": "patent US4620871A",
  "about": "(priority 1980, dated 1986)",
  "key": {"Tobacco callus": {"system": "Tobacco callus", "assay": "Growth of tobacco callus vs kinetin (Example 14)", "format": "cell-based", "conditions": "2 ppm active agent", "procedure": "An untreated culture medium served as control. Tobacco callus was grown on the treated and untreated culture media (incubation period: 3 weeks), and the daily growth, the increase in cell number and the frequency of mitosis were measured according to the method of Skoog.\nThe test described in Example 13 was repeated so that a culture medium containing 1 ppm of kinetin was used as control, and the compositions according to the invention were applied in amounts corresponding to 2 ppm of active agent."}, "Barley": {"system": "Barley", "assay": "Inhibition of the decomposition of chlorophyll in barley leaf segments", "conditions": "4 days dark", "procedure": "(§1) The active agent to be tested was dissolved in distilled water to form a 200 ppm solution, and leaf segments of the plants under examination, weighing 200 mg, were floated on the surface of the solution for 4 days in the dark. Thereafter chlorphyll was extracted from the leaf segments with methanol.\n(§2) To determine the starting state, chlorophyll was extracted with methanol from untreated leaf segments weighing 200 mg. In the control test the leaf segments, weighing 200 mg, were floated on the surface of distilled water for 4 days in the dark, and then chlorophyll was extracted from the leaf segments with methanol.\n(§3) The chlorophyll concentration was determined by measuring the extinction of the extracts at 665 mμ."}, "Soybean [1]": {"system": "Soybean", "assay": "Inhibition of the decomposition of chlorophyll in soybean leaf segments", "conditions": "4 days dark", "procedure": "as §1, §2, §3"}, "Bean": {"system": "Bean", "assay": "Inhibition of the decomposition of chlorophyll in bean leaf segments", "conditions": "4 days dark", "procedure": "as §1, §2, §3"}, "Soybean [2]": {"system": "Soybean", "assay": "Stimulation of photosynthesis, 14CO2 incorporation, soybean leaf discs (Example 20)", "conditions": "Glycine max, foliar, 2 hours", "procedure": "The compositions according to the invention were diluted with distilled water to an active agent content of 200 ppm, and leaf discs of alfalfa, soybean, bean and maize, weighing 200 mg each, were floated on the surfaces of the resulting solutions for 2 hours. Thereafter the treated leaf discs were place into the assimilation chamber of an appropriate measuring apparatus, and a known amount of radioactive carbon dioxide gas (^14 CO2) was introduced into the assimilation chamber from a reservoir by means of a gas feeder for 0.5 hours under carefully controlled illumination conditions. Thereafter the leaf discs were frozen with liquid nitrogen, triturated with 50% by weight perchloric acid in a potter homogenizer, and stock solutions were prepared from the resulting mixtures. The specific radioactivities of the stock solutions were determined by liquid scintillation.\n(§4) In the control test untreated leaf discs were exposed to labelled carbon, dioxide, and the amount of carbon dioxide incorporated under such conditions was regarded as standard."}, "Maize [3]": {"system": "Maize", "assay": "Stimulation of photosynthesis, 14CO2 incorporation, maize leaf discs (Example 20)", "conditions": "Zea mays, foliar, 2 hours", "procedure": "The specific radioactivities of the stock solutions were determined by liquid scintillation.\nas §4"}, "Alfalfa [4]": {"system": "Alfalfa", "assay": "Alfalfa field tests 1979, Boly (Example 26)", "format": "in vivo", "source_text": "The effects of the compositions according to the invention exerted on the crop yield (green yield), crude protein content, protein nitrogen content and C/N ratio of alfalfa, observed under field conditions in the tests performed in 1979 at the Agricultural Combinate of Boly, Hungary, are listed in Table 17."}, "[5]": {"system": "Mixed soybean/sunflower cultures", "assay": "Nitrogen content of mixed soybean/sunflower culture (Example 27)", "format": "in vivo", "conditions": "3 x 2 kg/ha; for Protein nitrogen content: control 2.27; for Total nitrogen content: control 2.56; for Protein nitrogen content in % of the total nitrogen content: control 65.2", "procedure": "Mixed soybean/sunflower cultures, to be harvested when green, were treated with the compositions according to the invention under large-parcel field conditions. The tests were performed in fourfold replications on parcels 1 hectare in area, each. The compositions were diluted with water and sprayed onto the parcels three times, in doses of 2 kg/ha, each. The first treatment was performed when the soil was already completely covered by green plants, the second treatment was performed two weeks later, and then the third after two additional weeks. The green plants were harvested from the treated and control parcels, and the total nitrogen content and protein nitrogen content were determined."}, "maize for silage": {"system": "maize for silage", "assay": "Maize for silage field tests 1979, Boly (Example 28)", "format": "in vivo", "source_text": "The effects of the cytokinin-like regulators on the crop yield, crude protein content and real protein content of maize for silage, observed under field conditions in the tests performed in 1979 at the Agricultural Combinate of Boly, Hungary, are listed in Table 20."}, "[6]": {"system": "Edible beans (Superelite variety)", "assay": "Crop yield of edible beans (Example 35)", "format": "in vivo", "conditions": "for Crop yield: control 15.00", "source_text": "Edible beans (Superelite variety) were sprayed once or twice with the compositions according to the invention.\nFrom the data of Table 29 conclusions can be drawn for the correlation between the development stage of the stand at treatment and the effect of the treatment."}, "Soybean [7]": {"system": "Soybean", "assay": "Total and protein nitrogen content of soybean (Example 39)", "format": "in vivo", "source_text": "The effects of 1,4-dihydroxyphthalazine and salts thereof exerted on the total nitrogen content and protein nitrogen content of soybean were examined as described in Example 27. The plants were sprayed with the compositions according to the invention at the beginning of the flowering of the apical cluster."}, "Alfalfa [8]": {"system": "Alfalfa", "assay": "Inhibition of the decomposition of chlorophyll in alfalfa", "conditions": "200 ppm, 100 mg green plant, control 0.78", "procedure": "as §2, with “Thereafter chlorphyll was extracted from the leaf segments with methanol. To” for “To”, “methanol. […] For alfalfa and maize the chlorphyll contents of 100 mg of green plant were examined.” for “methanol.”"}, "Maize [9]": {"system": "Maize", "assay": "Inhibition of the decomposition of chlorophyll in maize", "conditions": "200 ppm, 100 mg green plant, control 0.65", "procedure": "as §2, with “Thereafter chlorphyll was extracted from the leaf segments with methanol. To” for “To”, “methanol. […] For alfalfa and maize the chlorphyll contents of 100 mg of green plant were examined.” for “methanol.”"}, "maize leaves": {"system": "maize leaves", "assay": "Fixation of 14CO2 in maize leaves (Example 36)", "conditions": "18 hours", "procedure": "(§5) The biological activities of cytokinin-like factors can be well characterized by measuring the intensity of the photosynthetic carbon dioxide fixation and the incorporation of labelled amino acids into the TCA-insoluble protein fraction. The intensity of photosynthetic carbon dioxide fixation was determined on maize leaves, utilizing ^14 CO2, whereas the incorporation of amino acids was examined on bean leaves, utilizing […]-^14 C."}, "bean leaves": {"system": "bean leaves", "assay": "Incorporation of Gly-2-14C in bean leaves (Example 36)", "conditions": "18 hours", "procedure": "as §5"}, "[10]": {"conditions": "2 treatments, 06.20.1979 and 07.06.1979"}},
  "data": [
    {"smiles": "N=C(N)N.N=C(N)N.Oc1nnc(O)c2ccccc12", "note": "[1,4-dihydroxyphthalazine diguanidine salt]", "values": [
      {"measurement": "Dry weight of the callus", "setting": "Tobacco callus; kinetin 1 ppm", "result": 170.92, "unit": "mg"},
      {"measurement": "Speed of growth", "setting": "Tobacco callus; kinetin 1 ppm", "result": 98.23},
      {"measurement": "activity at 2 ppm", "setting": "Tobacco callus; Nicotiana tabacum, 504 h, kinetin 1 ppm = 100, read-out: Speed of growth, Index %", "result": 98.2, "unit": "%"},
      {"measurement": "Chlorophyll", "setting": "Barley; 200 ppm, control 3.7", "result": 9.7, "unit": "mg"},
      {"measurement": "activation at 200 ppm", "setting": "Barley; Hordeum vulgare, foliar, 96 h, read-out: Promotion", "result": 162, "unit": "%"},
      {"measurement": "Chlorophyll", "setting": "Soybean [1]; 200 ppm, control 3.5", "result": 5.4, "unit": "mg"},
      {"measurement": "activation at 200 ppm", "setting": "Soybean [1]; Glycine max, foliar, 96 h, read-out: Promotion", "result": 54, "unit": "%"},
      {"measurement": "Chlorophyll", "setting": "Bean; 200 ppm, control 4.2", "result": 6.5, "unit": "mg"},
      {"measurement": "activation at 200 ppm", "setting": "Bean; foliar, 96 h, read-out: Promotion", "result": 54, "unit": "%"},
      {"measurement": "activation at 200 ppm", "setting": "Soybean [2]", "result": 67, "unit": "%"},
      {"measurement": "activation at 200 ppm", "setting": "Maize [3]", "result": 12, "unit": "%"},
      {"measurement": "P2O5 content", "setting": "Alfalfa [4]; control 8.3", "result": "10.3 % of dry substance"},
      {"measurement": "Crude protein content", "setting": "Alfalfa [4]; control 21.3", "result": "25.4 % of dry substance"},
      {"measurement": "Green yield", "setting": "Alfalfa [4]; control 120", "result": 146, "unit": "q/ha"},
      {"measurement": "Crude protein content, increase", "setting": "Alfalfa [4]; in vivo", "result": 19.4, "unit": "%"},
      {"measurement": "Green yield, increase", "setting": "Alfalfa [4]; in vivo", "result": 22.3, "unit": "%"},
      {"measurement": "P2O5 content, increase", "setting": "Alfalfa [4]; in vivo", "result": 24.6, "unit": "%"},
      {"measurement": "Protein nitrogen content, stimulation", "setting": "[5]", "result": 39.6, "unit": "%"},
      {"measurement": "Total nitrogen content, stimulation", "setting": "[5]", "result": 34.7, "unit": "%"},
      {"measurement": "Protein nitrogen content", "setting": "[5]", "result": "3.17 % of dry weight"},
      {"measurement": "Total nitrogen content", "setting": "[5]", "result": "3.45 % of dry weight"},
      {"measurement": "Protein nitrogen content in % of the total nitrogen content", "setting": "[5]", "result": 94.8, "unit": "%"},
      {"measurement": "P2O5 content", "setting": "maize for silage; control 7.5", "result": "9.5 % of dry substance"},
      {"measurement": "Crude protein content", "setting": "maize for silage; control 13.2", "result": "16.0 % of dry substance"},
      {"measurement": "Green weight", "setting": "maize for silage; control 310.2", "result": 361.3, "unit": "q/ha"},
      {"measurement": "Crude protein content, increase", "setting": "maize for silage; in vivo", "result": 21.3, "unit": "%"},
      {"measurement": "Green weight, increase", "setting": "maize for silage; in vivo", "result": 15.5, "unit": "%"},
      {"measurement": "P2O5 content, increase", "setting": "maize for silage; in vivo", "result": 27.2, "unit": "%"},
      {"measurement": "Crop yield, increase", "setting": "[6]; 1 treatment, 07.06.1979", "result": 18.4, "unit": "%"},
      {"measurement": "Crop yield", "setting": "[6]; 1 treatment, 07.06.1979", "result": 17.77, "unit": "q/ha"},
      {"measurement": "Protein nitrogen content", "setting": "Soybean [7]; control 1.9", "result": "3.9 % of dry substance"},
      {"measurement": "Total nitrogen content", "setting": "Soybean [7]; control 2.6", "result": "4.7 % of dry substance"},
      {"measurement": "Protein nitrogen content, increase", "setting": "Soybean [7]; in vivo", "result": 105.3, "unit": "%"},
      {"measurement": "Total nitrogen content, increase", "setting": "Soybean [7]; in vivo", "result": 81.0, "unit": "%"}
    ]},
    {"smiles": "CCC[n+]1c[nH]c2ccccc21.[Br-]", "note": "[N--(n-Propyl)-benzimidazolium bromide, N-(n-propyl)-benzimidazolium bromide]", "values": [
      {"measurement": "Chlorophyll content", "setting": "Alfalfa [8]", "result": 0.96, "unit": "mg"},
      {"measurement": "Chlorophyll content", "setting": "Maize [9]", "result": 0.82, "unit": "mg"},
      {"measurement": "Protein nitrogen content, stimulation", "setting": "[5]", "result": 21.1, "unit": "%"},
      {"measurement": "Total nitrogen content, stimulation", "setting": "[5]", "result": 9.7, "unit": "%"},
      {"measurement": "Protein nitrogen content", "setting": "[5]", "result": "2.75 % of dry weight"},
      {"measurement": "Total nitrogen content", "setting": "[5]", "result": "2.80 % of dry weight"},
      {"measurement": "Protein nitrogen content in % of the total nitrogen content", "setting": "[5]", "result": 98.9, "unit": "%"},
      {"measurement": "Crop yield, increase", "setting": "[6]; 1 treatment, 06.20.1979", "result": 18.4, "unit": "%"},
      {"measurement": "Crop yield", "setting": "[6]; 1 treatment, 06.20.1979", "result": 17.77, "unit": "q/ha"},
      {"measurement": "Crop yield, increase", "setting": "[6]; 1 treatment, 07.06.1979", "result": 13.5, "unit": "%"},
      {"measurement": "Crop yield", "setting": "[6]; 1 treatment, 07.06.1979", "result": 17.03, "unit": "q/ha"},
      {"measurement": "Crop yield, increase", "setting": "[6]; [10]", "result": 30.1, "unit": "%"},
      {"measurement": "Crop yield", "setting": "[6]; [10]", "result": 19.52, "unit": "q/ha"},
      {"measurement": "Fixation of 14CO2", "setting": "maize leaves; fresh weight, control 5.72", "result": 10.52, "unit": "μCi/g"},
      {"measurement": "Fixation of 14CO2, %", "setting": "maize leaves; increase over control", "result": 84, "unit": "%"},
      {"measurement": "Incorporation of Gly-2-14C", "setting": "bean leaves; fresh weight, control 3.52", "result": 4.96, "unit": "μCi/g"},
      {"measurement": "Incorporation of Gly-2-14C, %", "setting": "bean leaves; increase over control", "result": 41, "unit": "%"}
    ]}
  ]
}
